Data as given in patent publication US9163256B2, “Mutant receptors and their use in a nuclear receptor-based inducible gene expression system” (priority 2004, dated 2015).
Where “and” joins values, the source holds several entries; their conditions need not be identical. Equal entries are not always repeated. Where two headings read alike, the source gives them in different places.

Assays:
Assay in all cases: cell-based
[1] = biological target: CfEcR-DEF mutant L132M (Choristoneura fumiferana, UniProt O77255, L415M); type: cell-based; settings: for Emax: NIH3T3, 40 h, read-out: Rel Max FI, mutant L132M
Chain of CfEcR-DEF mutant L132M (O77255 entry or part of it L415M): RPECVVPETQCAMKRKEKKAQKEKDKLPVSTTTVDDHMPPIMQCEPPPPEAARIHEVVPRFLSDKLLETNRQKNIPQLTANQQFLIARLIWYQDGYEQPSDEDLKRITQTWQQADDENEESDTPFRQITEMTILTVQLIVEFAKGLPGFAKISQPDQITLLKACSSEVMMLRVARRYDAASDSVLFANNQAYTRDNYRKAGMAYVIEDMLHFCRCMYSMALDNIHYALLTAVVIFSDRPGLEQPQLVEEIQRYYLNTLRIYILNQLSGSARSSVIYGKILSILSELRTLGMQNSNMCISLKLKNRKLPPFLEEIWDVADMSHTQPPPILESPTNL
Chain of CfEcR-DEF mutant L132M (P28702 298-449, further chain): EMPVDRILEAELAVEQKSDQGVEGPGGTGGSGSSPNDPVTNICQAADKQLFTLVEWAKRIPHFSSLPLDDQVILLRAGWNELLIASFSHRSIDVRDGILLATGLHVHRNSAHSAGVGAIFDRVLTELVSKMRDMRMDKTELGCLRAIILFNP
Procedure: This construct was prepared in the same way as in switch 1.1 above except wild-type CfEcR-DEF was replaced with mutant CfEcR-DEF comprising a ligand binding domain comprising a substitution mutation selected from Table 1 below.
DNAs were transfected into mouse NIH3T3 cells (ATCC) as follows. Standard methods for culture and maintenance of the cells were followed. Cells were harvested and plated 96-well plates at 2,500 cells per well, in 50 μL of growth medium containing 10% fetal bovine serum (FBS). Twenty-four hours later, the cells were treated with 35 μL of serum-free growth medium containing either dimethylsulfoxide (DMSO; control) or a DMSO solution of ligand. The cells were then transfected using Superfect (Qiagen Inc.) transfection reagent. For each well, 0.625 μL of Superfect was mixed with 14.2 μL of serum-free growth medium. 0.16 μg of reporter construct and 0.04 μg of each receptor construct were added to the transfection reagent mix. The contents of the transfection mix were mixed in a vortex mixer and let stand at room temperature for 30 minutes. At the end of incubation, 15 μL of transfection mix was added to the cells. The cells were maintained at 37° C. and 5% CO2 for 48 hours in 5% FBS.
Reporter Assays: Cells were harvested 40 hours after adding ligands. 125 μL of passive lysis buffer (part of Dual-Luciferase reporter assay system from Promega Corporation) were added to each well of the […] plate. The plates were placed on a rotary shaker for 15 minutes. Twenty μL of lysate were assayed. Luciferase activity was measured using Dual-Luciferase reporter assay system from Promega Corporation following the manufacturer's instructions. Fold induction (FI) activities were calculated by dividing relative light units (“RLU”) in ligand treated cells with RLU in DMSO treated cells (untreated control).

[2] = biological target: CfEcR-DEF mutant M92E (Choristoneura fumiferana, UniProt O77255, M375E)
Chain of CfEcR-DEF mutant M92E (P28702 299-449): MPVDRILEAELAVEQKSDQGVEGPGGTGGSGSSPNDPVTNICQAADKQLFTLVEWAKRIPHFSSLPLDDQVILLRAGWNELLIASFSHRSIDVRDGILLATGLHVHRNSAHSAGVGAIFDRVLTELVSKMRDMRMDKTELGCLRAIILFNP
Chain of CfEcR-DEF mutant M92E (O77255 entry or part of it M375E): as the sequence (O77255 entry or part of it L415M) above, with M169E, M209L counted along it
Method in brief: (§1)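 Mutant CfEcR-DEF receptor and GAL4-driven luciferase reporter constructs transfected into mouse NIH3T3 cells with DMSO or ligand added; maintained 48 h at 37° C in 5% FBS, harvested 40 h after ligand addition. Dual-luciferase read-out; fold induction = RLU with ligand / RLU with DMSO.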

[3] = biological target: CfEcR-DEF mutant L132V (Choristoneura fumiferana, UniProt O77255, L415V)
Chain of CfEcR-DEF mutant L132V (O77255 entry or part of it L415V): as the sequence (O77255 entry or part of it L415M) above, with M209V counted along it
Chain of CfEcR-DEF mutant L132V (P28702 298-449, further chain): as the sequence (P28702 298-449, further chain) above
Method in brief: as §1

[4] = biological target: CfEcR-DEF mutant A110E (Choristoneura fumiferana, UniProt O77255, A393E)
Chain of CfEcR-DEF mutant A110E (P28702 299-449, stated change not applied): as the sequence (P28702 299-449) above
Chain of CfEcR-DEF mutant A110E (O77255 entry or part of it A393E): as the sequence (O77255 entry or part of it L415M) above, with A187E, M209L counted along it
Method in brief: as §1

[5] = biological target: CfEcR-DEF mutant M54T (Choristoneura fumiferana, UniProt O77255, M337T)
Chain of CfEcR-DEF mutant M54T (O77255 entry or part of it M337T): as the sequence (O77255 entry or part of it L415M) above, with M131T, M209L counted along it
Chain of CfEcR-DEF mutant M54T (P28702 299-449, further chain): as the sequence (P28702 299-449) above
Method in brief: as §1

[6] = biological target: CfEcR-DEF mutant V107I/Y127E/A110P (Choristoneura fumiferana, UniProt O77255, A393P/V390I/Y410E)
Chain of CfEcR-DEF mutant V107I/Y127E/A110P (P28702 299-449, stated change not applied): as the sequence (P28702 299-449) above
Chain of CfEcR-DEF mutant V107I/Y127E/A110P (O77255 entry or part of it V390I/A393P/Y410E): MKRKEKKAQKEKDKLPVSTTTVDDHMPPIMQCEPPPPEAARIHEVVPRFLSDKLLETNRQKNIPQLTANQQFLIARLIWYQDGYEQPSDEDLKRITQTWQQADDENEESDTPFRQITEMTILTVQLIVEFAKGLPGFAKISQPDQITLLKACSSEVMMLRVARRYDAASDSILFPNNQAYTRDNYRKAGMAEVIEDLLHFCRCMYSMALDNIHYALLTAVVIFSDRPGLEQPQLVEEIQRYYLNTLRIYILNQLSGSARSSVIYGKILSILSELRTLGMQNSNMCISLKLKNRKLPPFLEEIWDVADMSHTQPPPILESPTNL
Method in brief: as §1

[7] = biological target: CfEcR-DEF mutant F109L (Choristoneura fumiferana, UniProt O77255, F392L)
Chain of CfEcR-DEF mutant F109L (P28702 299-449): as the sequence (P28702 299-449) above
Chain of CfEcR-DEF mutant F109L (O77255 entry or part of it F392L): as the sequence (O77255 entry or part of it L415M) above, with F186L, M209L counted along it
Method in brief: as §1

[8] = biological target: CfEcR-DEF mutant V128F/A110P (Choristoneura fumiferana, UniProt O77255, A393P/V411F)
Chain of CfEcR-DEF mutant V128F/A110P (P28702 299-449, stated change not applied): as the sequence (P28702 299-449) above
Chain of CfEcR-DEF mutant V128F/A110P (O77255 entry or part of it A393P/V411F): as the sequence (O77255 entry or part of it V390I/A393P/Y410E) above, with I172V, E192Y, V193F counted along it
Method in brief: as §1

[9] = biological target: CfEcR-DEF mutant L234I (Choristoneura fumiferana, UniProt O77255, L517I)
Chain of CfEcR-DEF mutant L234I (P28702 299-449): as the sequence (P28702 299-449) above
Chain of CfEcR-DEF mutant L234I (O77255 entry or part of it L517I): as the sequence (O77255 entry or part of it L415M) above, with M209L, L311I counted along it
Method in brief: as §1

[10] = biological target: CfEcR-DEF mutant N119F/V96T (Choristoneura fumiferana, UniProt O77255, N402F/V379T)
Chain of CfEcR-DEF mutant N119F/V96T (O77255 entry or part of it V379T/N402F): as the sequence (O77255 entry or part of it V390I/A393P/Y410E) above, with V161T, I172V, P175A, N184F, E192Y counted along it
Chain of CfEcR-DEF mutant N119F/V96T (P28702 299-449, further chain): as the sequence (P28702 299-449) above
Method in brief: as §1

[11] = biological target: CfEcR-DEF mutant T52L (Choristoneura fumiferana, UniProt O77255, T335L)
Chain of CfEcR-DEF mutant T52L (P28702 298-449): as the sequence (P28702 298-449, further chain) above
Chain of CfEcR-DEF mutant T52L (O77255 entry or part of it T335L): as the sequence (O77255 entry or part of it L415M) above, with T129L, M209L counted along it
Method in brief: as §1

[12] = biological target: CfEcR-DEF mutant M125R (Choristoneura fumiferana, UniProt O77255, M408R)
Chain of CfEcR-DEF mutant M125R (P28702 299-449): as the sequence (P28702 299-449) above
Chain of CfEcR-DEF mutant M125R (O77255 entry or part of it M408R): as the sequence (O77255 entry or part of it V390I/A393P/Y410E) above, with I172V, P175A, M190R, E192Y counted along it
Method in brief: as §1

[13] = biological target: CfEcR-DEF mutant M125C (Choristoneura fumiferana, UniProt O77255, M408C)
Chain of CfEcR-DEF mutant M125C (O77255 entry or part of it M408C): as the sequence (O77255 entry or part of it L415M) above, with M202C, M209L counted along it
Chain of CfEcR-DEF mutant M125C (P28702 299-449, further chain): as the sequence (P28702 299-449) above
Method in brief: as §1

[14] = biological target: CfEcR-DEF mutant V96S (Choristoneura fumiferana, UniProt O77255, V379S)
Chain of CfEcR-DEF mutant V96S (O77255 entry or part of it V379S): as the sequence (O77255 entry or part of it V390I/A393P/Y410E) above, with V161S, I172V, P175A, E192Y counted along it
Chain of CfEcR-DEF mutant V96S (P28702 299-449, further chain): as the sequence (P28702 299-449) above
Method in brief: as §1

[15] = biological target: CfEcR-DEF mutant F109W (Choristoneura fumiferana, UniProt O77255, F392W)
Chain of CfEcR-DEF mutant F109W (O77255 entry or part of it F392W): as the sequence (O77255 entry or part of it L415M) above, with F186W, M209L counted along it
Chain of CfEcR-DEF mutant F109W (P28702 299-449, further chain): as the sequence (P28702 299-449) above
Method in brief: as §1

[16] = biological target: CfEcR-DEF mutant R95H (Choristoneura fumiferana, UniProt O77255, R378H)
Chain of CfEcR-DEF mutant R95H (P28702 299-449): as above
Chain of CfEcR-DEF mutant R95H (O77255 entry or part of it R378H): as the sequence (O77255 entry or part of it V390I/A393P/Y410E) above, with R160H, I172V, P175A, E192Y counted along it
Method in brief: as §1

[17] = biological target: CfEcR-DEF mutant M125L (Choristoneura fumiferana, UniProt O77255, M408L)
Chain of CfEcR-DEF mutant M125L (P28702 299-449): as the sequence (P28702 299-449) above
Chain of CfEcR-DEF mutant M125L (O77255 entry or part of it M408L): as the sequence (O77255 entry or part of it V390I/A393P/Y410E) above, with I172V, P175A, M190L, E192Y counted along it
Method in brief: as §1

[18] = biological target: CfEcR-DEF mutant M125P (Choristoneura fumiferana, UniProt O77255, M408P)
Chain of CfEcR-DEF mutant M125P (P28702 299-449): as the sequence (P28702 299-449) above
Chain of CfEcR-DEF mutant M125P (O77255 entry or part of it M408P): as the sequence (O77255 entry or part of it V390I/A393P/Y410E) above, with I172V, P175A, M190P, E192Y counted along it
Method in brief: as §1

[19] = NIH3T3, mouse, 40 h, read-out: GS-E ligand max FI (relative to DMSO)
[20] = NIH3T3, 40 h, read-out: Rel Max FI

## CCc1c(OC)cccc1C(=O)NN(C(=O)c1cc(C)cc(C)c1)C(C)(C)C [RG-102240, N-(2-ethyl-3-methoxybenzoyl)-N′-(3,5-dimethylbenzoyl)-N′-tert-butylhydrazine]
[1]
  Emax: 100%
[1]; relative to max fold induction of GS-E ligand
  Emax: 100%
[1]; [19]
  maximal fold induction: 1520
[1]; mutant L132M, GS-E ligand
  Concentration at max FI: 10.00 mM
[2]
  EC50: ~8 µM
[2]; [20]
  Emax: 100%
[2]; [19]
  maximal fold induction: 141
[2]; mutant M92E, GS-E ligand
  Concentration (mM) at max FI: 0.0333 mM
[3]
  EC50: 2.32 µM
[3]; [20]
  Emax: 100%
[3]; [19]
  maximal fold induction: 2130
[3]; mutant L132V, GS-E ligand
  Concentration (mM) at max FI: 0.01 mM
[4]
  EC50: 0.59 µM
[4]; [20]
  Emax: 100%
[4]; [19]
  maximal fold induction: 4930
[4]; mutant A110E, GS-E ligand
  Concentration (mM) at max FI: 10.00 mM
[5]
  EC50: 0.08 µM
[5]; [20]
  Emax: 100%
[5]; [19]
  maximal fold induction: 4460
[5]; mutant M54T, GS-E ligand
  Concentration (mM) at max FI: 10.00 mM
[6]
  EC50: 0.3 µM
[6]; [20]
  Emax: 100%
[6]; [19]
  maximal fold induction: 2210
[6]; mutant V107I/Y127E/A110P, GS-E ligand
  Concentration (mM) at max FI: 10 mM
[7]
  EC50: ~2 µM
[7]; [20]
  Emax: 100%
[7]; [19]
  maximal fold induction: 20
[7]; mutant F109L, GS-E ligand
  Concentration (mM) at max FI: 33.30 mM
[8]
  EC50: ~8 µM
[8]; [20]
  Emax: 100%
[8]; [19]
  maximal fold induction: 2960
[8]; mutant V128F/A110P, GS-E ligand
  Concentration (mM) at max FI: 33.30 mM
[9]
  EC50: 0.77 µM
[9]; [20]
  Emax: 100%
[9]; [19]
  maximal fold induction: 2650
[9]; mutant L234I, GS-E ligand
  Concentration (mM) at max FI: 10 mM
[10]
  EC50: ~8 µM
[10]; [20]
  Emax: 100%
[10]; [19]
  maximal fold induction: 1740
[10]; mutant N119F/V96T, GS-E ligand
  Concentration (mM) at max FI: 33.3 mM
[11]
  EC50: ~0.5 µM
[11]; [20]
  Emax: 100%
[11]; [19]
  maximal fold induction: 1130
[11]; mutant T52L, GS-E ligand
  Concentration (mM) at max FI: 33.3 mM
[12]
  EC50: 3.7 µM
[12]; [20]
  Emax: 0%
[12]; [19]
  maximal fold induction: 2410
[12]; mutant M125R, GS-E ligand
  Concentration (mM) at max FI: 33.3 mM
[13]; EC50, mutant M125C
  EC50: ~8 µM and > 33 µM
[13]; [20]
  Emax: 100%
[13]; [19]
  maximal fold induction: 9
[13]; mutant M125C, GS-E ligand
  Concentration (mM) at max FI: 33.3 mM
[14]
  EC50: 1.14 µM
[14]; [20]
  Emax: 100%
[14]; [19]
  maximal fold induction: 1830
[14]; mutant V96S, GS-E ligand
  Concentration (mM) at max FI: 33.3 mM
[15]
  EC50: 0.61 µM
[15]; [20]
  Emax: 100%
[15]; [19]
  maximal fold induction: 3060
[15]; mutant F109W, GS-E ligand
  Concentration (mM) at max FI: 10.00 mM
[16]
  EC50: 1.58 µM
[16]; [20]
  Emax: 100%
[16]; [19]
  maximal fold induction: 3410
[16]; mutant R95H, GS-E ligand
  Concentration (mM) at max FI: 33.30 mM
[17]
  EC50: ~10 µM
[17]; [20]
  Emax: 100%
[17]; [19]
  maximal fold induction: 2250
[17]; mutant M125L, GS-E ligand
  Concentration (mM) at max FI: 0.0333 mM
[18]
  EC50: > 33 µM
[18]; [20]
  Emax: 100%
[18]; [19]
  maximal fold induction: 1
[18]; mutant M125P, GS-E ligand
  Concentration (mM) at max FI: 0.0333 mM
